The target of the assay is T1, recombinant human liver GK (Homo sapiens, UniProt P35557).
T1 construct: made in house; host or cells: E. coli
T1 sequence (P35557 1-466 isoform P35557-2): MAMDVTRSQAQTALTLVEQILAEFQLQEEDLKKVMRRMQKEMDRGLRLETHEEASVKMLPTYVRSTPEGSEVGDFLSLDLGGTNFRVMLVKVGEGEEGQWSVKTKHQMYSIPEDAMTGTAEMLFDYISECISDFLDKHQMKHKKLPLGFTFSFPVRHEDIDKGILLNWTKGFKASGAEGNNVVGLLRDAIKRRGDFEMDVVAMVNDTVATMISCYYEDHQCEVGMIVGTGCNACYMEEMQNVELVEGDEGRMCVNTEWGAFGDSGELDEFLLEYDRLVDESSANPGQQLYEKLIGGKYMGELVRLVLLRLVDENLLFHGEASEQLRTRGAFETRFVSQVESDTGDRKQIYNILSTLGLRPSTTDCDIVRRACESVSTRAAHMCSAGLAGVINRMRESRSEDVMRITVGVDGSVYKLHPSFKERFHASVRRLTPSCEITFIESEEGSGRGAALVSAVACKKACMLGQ
Description: glucokinase activation assay (Thio-NADH, G6PDH-coupled). The format is biochemical. Particulars: final glucose concentration 2.5 mM; 30° C. The text has this:
The excellent glucokinase-activating effect of the compounds of formula (I) may be determined by a method described in literature (e.g., Diabetes, Vol. 45, pp. 1671-1677, 1996), or in accordance with it.
The glucokinase activity may be determined not by directly measuring glucose-6-phosphate but by measuring the level of Thio-NADH, which is produced when a reporter enzyme, glucose-6-phosphate dehydrogenase produces phosphogluconolactone from glucose-6-phosphate, and based on that level, the level of glucokinase activation may be determined.
In this assay, used was a recombinant human liver GK, which was expressed by E. coli as a FLAG fusion protein therein and was purified by ANTIFLAG M2 AFFINITY GEL (Sigma).
Using a flat-bottomed 96-well plate, the assay was carried out at 30° C. 69 μl of an assay buffer (25 mM Hepes Buffer, pH=7.2, 2 mM MgCl2, 1 mM ATP, 0.5 mM TNAD, 1 mM dithiothreitol) was put into the plate, and 1 μl of a DMSO solution of the compound or DMSO alone as a control was added thereto. Next, 20 μl of an enzyme mixture (FLAG-GK, 20 U/ml G6PDH) cooled in ice was added to it, and 10 μl of a substrate, 25 mM glucose was added to it, and the reaction was initiated (final glucose concentration=2.5 mM).
After the start of the reaction, the increase in the absorbance at 405 nm was measured for 12 minutes at intervals of 30 seconds, and the increase for the first 5 minutes was used for evaluating the compound tested. FLAG-GK was added so that the absorbance increase after 5 minutes in the presence of 1% DMSO could be from 0.04 to 0.06.
The OD level of the DMSO control was set as 100%; and the OD level of the test compound at different concentrations was determined. From the OD level at each concentration, Emax (%) and EC50 (μM) were computed and used as the index of the GK-activating potency of the compound.
In the case of `CCS(=O)(=O)c1ccc(Oc2cc3cc(-c4ccccn4)[nH]c3cc2Oc2cccnc2OC(F)F)cn1` [Example 2, 6-([2-(Difluoromethoxy)pyridin-3-yl]oxy)-5-([6-(ethylsulfonyl)pyridin-3-yl]oxy)-2-pyridin-2-yl-1H-indole], the EC50 (commonly the concentration at which the effect is half-maximal) stood at 0.18 µM.

With `CS(=O)(=O)c1ccc(Oc2cc3cc(-c4ccccn4)[nH]c3cc2CN2CCCC2=O)cn1` [Example 3, 1-[(5-([6-(Methylsulfonyl)pyridin-3-yl]oxy)-2-pyridin-2-yl-1H-indol-6-yl)methyl]p-pyrrolidin-2-one], the EC50 is 0.07 µM. Take `Cc1nc(-c2ccc(Oc3cc4cc(-c5ccccn5)[nH]c4cc3CN3CCCC3=O)cn2)no1` [Example 6, 1-[(5-([6-(5-Methyl-1,2,4-oxadiazol-3-yl)pyridin-3-yl]oxy)-2-pyridin-2-yl-1H-indol-6-yl)methyl]pyrrolidin-2-one]: the EC50 stood at 0.05 µM.

Values taken from US7799820B2, “2-Heterocycle-substituted indole derivatives for treating diabetes and associated conditions” (Banyu Pharmaceutical Co., Ltd., priority 2005, dated 2010).
